Assays:
H526 cell line = test: Cell viability assay for H526 cell line; assay type: cell-based; conditions: Homo sapiens, NCI-H526, 120 h; H526 cells, 5 days, EZ-Cytox, 0.46-3000 nM
Description: 3. Cell Viability Assay for H526 Cell Line
(1) Culture of NCI-H526 Cell Line
(2) Treatment of Compounds of the Present Invention and Method of Cell Viability Assay
After treating the compound to each well to make the total volume of 200 μL, it was cultured in a CO2 incubator (Thermo Fisher Science, Cat. No. 4111) for 5 days.
The absorbance of the completely cultured sample was measured by setting the wavelength of a plate reader (BMG Labtech, CLARIOstar Plus) to […], and was measured after shaking for 3 minutes in a plate reader before measurement.
In Table 3, Activity represents IC50 value of each Exemplary Compound treatment group to H526 cell line (A: <30 nM, B: <50 nM, C: <100 nM, D: <200 nM, E: <400 nM).

PLK1 = target: T1, PLK1 (Homo sapiens, UniProt P53350); test: Luciferase assay for PLK1 in HeLa LgBit (Plk1-HiBit KI) cell line; assay type: cell-based; conditions: 300 nM compound, luminescence after 9 hours
T1 construct: endogenous in cells; host or cells: HeLa cells stably expressing LgBit, with CRISPR/Cas9 knock-in of HiBit at the endogenous PLK1 locus
Description: 2. Luciferase Assay for PLK1
(1) Preparation and Culture of HeLa LgBit (Plk1-HiBit KI) Cell Line
A HeLa cell line in which the LgBit vector was transfected and expressed stably was prepared. Then, after constructing gRNA and donor to express the HiBit amino acid sequence behind the C-terminal of the Plk1 gene, which was inherent in the cell, it was inserted into the cell together with a vector capable of expressing CRISPR/Cas9. Only the cells in which the insertion was completed and knock-in had progressed were selected, sub-cultured and used.
(2) Treatment of Compounds of the Present Invention and Method of Luciferase Assay
In the case of HeLa LgBit (Plk1-HiBit KI), the compounds were treated after being released after thymidine block, and the process was as follows. Thymidine (Sigma-Aldrich Cat. No. T9250-5G) was completely dissolved in DW and used in the experiment. For thymidine block, the products were treated with 2 mM of thymidine and then incubated for 24 hours. For release and chemical treatment, the medium was suctioned and washed with 1×PBS. TrypLE™ was added and incubated in 37° C. CO2 incubator for 5 min. Cells neutralized by adding complete media were counted through a counter. For each well of a 96-well culture plate (SPL), 3.3×10^4 cells and a total medium volume of 150 μL were seeded and incubated in a CO2 incubator.
Each cell line was incubated in a CO2 incubator for 18 hours, and Endurazine was added to each well to make up 4% of the total volume. After adding the compound of the present invention in a 96-well white plate (SPL) to a concentration of 300 nM, the wavelength of the plate reader (BMG Labtech, CLARIOstar Plus) was set to […], and then the luminescence was tracked in real time.
The results are shown in Table 2 below and FIGS. 1 and 2.
In Table 2, Activity represents the ratio of the luminescence value of each Exemplary Compound treatment group to DMSO treatment group (+++: <0.3, ++ <0.6, + <0.7).

[1] = Cell viability assay for MRC-5 cell line; conditions: human
Description: Cell Viability Assay for MRC-5 Cell Line
(1) Culture of MRC-5 Cell Line
The MRC-5 cell line was purchased from Korea Cell Line Bank (KCLB), Seoul, Korea. Passage of cultured cells was maintained within P15.
6×10^3 cells were seeded for each well of a 96-well plate (SPL), and the cells were cultured in total volume of 150 μL.
Each well was mixed with a medium and treated, and the volume was set to 50 μL, so that the total volume of each well was 200 μL. Then, it was cultured in 37° C.
The following compounds were used as comparative examples, and the cell viability assay was performed in the same manner as in the compounds of Examples.
(3) Cytotoxicity Experiment
After treating EZ-Cytox (DOGEN, Cat. NO. EZ-3000, Lot. No. DLS2112) 20 μL in each well of completely cultured plate, it was cultured in 37° C. CO2 incubator for 4 hours. […] The data were converted into graphs using the Prism (ver. 9) program.

T1 sequence (P53350 whole entry): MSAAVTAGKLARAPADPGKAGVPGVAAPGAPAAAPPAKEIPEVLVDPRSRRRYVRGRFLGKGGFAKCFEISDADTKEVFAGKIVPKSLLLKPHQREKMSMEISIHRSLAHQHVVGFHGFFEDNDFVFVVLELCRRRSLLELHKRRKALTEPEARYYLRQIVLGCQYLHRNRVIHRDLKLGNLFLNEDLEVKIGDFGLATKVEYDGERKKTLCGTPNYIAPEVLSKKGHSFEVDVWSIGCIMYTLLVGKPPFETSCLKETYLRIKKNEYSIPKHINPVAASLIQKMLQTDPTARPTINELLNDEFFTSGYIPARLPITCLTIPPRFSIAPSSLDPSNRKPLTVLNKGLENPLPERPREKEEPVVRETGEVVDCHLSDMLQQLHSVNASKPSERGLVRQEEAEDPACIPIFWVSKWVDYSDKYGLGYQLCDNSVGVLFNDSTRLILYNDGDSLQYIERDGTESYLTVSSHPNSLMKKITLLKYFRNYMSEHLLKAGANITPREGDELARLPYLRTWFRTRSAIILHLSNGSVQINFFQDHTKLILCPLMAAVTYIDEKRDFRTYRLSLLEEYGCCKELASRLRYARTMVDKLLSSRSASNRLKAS

Question: Which IC50 (H526 cell line) does the source give for COc1cc(C(=O)NC2CCN(C(=O)CCN3CCN(c4cccc(C5CCC(=O)NC5=O)c4)CC3)CC2)ccc1Nc1ncc2c(n1)N(C(C)C)CC1(CC1)C(=O)N2C (stereo not drawn) [Compound 5, N-(1-(3-(4-(3-(2,6-dioxopiperidin-3-yl)phenyl)piperazin-1-yl)propanoyl)piperidin-4-yl)-4-((9′-isopropyl-5′-methyl-6′-oxo-5′,6′,8′,9′-tetrahydrospiro[cyclopropane-1,7′-pyrimido[4,5-b][1,4]diazepin]-2′-yl)amino)-3-methoxybenzamide] here?
Answer: < 0.2 µM

Question: What about the “Activity: ratio of the luminescence value of each Exemplary Compound treatment group to DMSO treatment group” value (“Activity: ratio” below) (PLK1) of the same compound?
Answer: ++ (++ <0.6)

Question: What about the IC50 at 5 days ([1]; MRC-5 cells (normal cell line)) of the same compound?
Answer: > 10 µM

Question: For COc1cc(C(=O)NC2CC3(CCN(CC4CCN(c5ccc(C6CCC(=O)NC6=O)cc5OC)CC4)CC3)C2)ccc1Nc1ncc2c(n1)N(C(C)C)CC(F)(F)C(=O)N2C (stereo not drawn) [Compound 36, 4-((7,7-difluoro-9-isopropyl-5-methyl-6-oxo-6,7,8,9-tetrahydro-5H-pyrimido[4,5-b][1,4]diazepin-2-yl)amino)-N-(7-((1-(4-(2,6-dioxopiperidin-3-yl)-2-methoxyphenyl)piperidin-4-yl)methyl)-7-azaspiro[3.5]nonan-2-yl)-3-methoxybenzamide], which IC50 (H526 cell line) is on record?
Answer: < 0.03 µM

Question: And the “Activity: ratio” value (PLK1)?
Answer: ++ (++ <0.6)

Question: And the IC50 at 5 days [1]?
Answer: > 10 µM

Question: Which IC50 (H526 cell line) does the source give for COc1cc(C(=O)NC2CC3(CCN(CC4CCN(c5ccc(C6CCC(=O)NC6=O)cc5F)CC4)CC3)C2)ncc1Nc1ncc2c(n1)N(C(C)C)CC(F)(F)C(=O)N2C (stereo not drawn) [Compound 22, 5-((7,7-difluoro-9-isopropyl-5-methyl-6-oxo-6,7,8,9-tetrahydro-5H-pyrimido[4,5-b][1,4]diazepin-2-yl)amino)-N-(7-((1-(4-(2,6-dioxopiperidin-3-yl)-2-fluorophenyl)piperidin-4-yl)methyl)-7-azaspiro[3.5]nonan-2-yl)-4-methoxypicolinamide] here?
Answer: < 0.05 µM

Question: And the “Activity: ratio” value (PLK1)?
Answer: ++ (++ <0.6)

Question: What about the IC50 at 5 days [1] of the same compound?
Answer: > 10 µM

Question: Which results are given for COc1cc(C(=O)NN2CCC(CN3CCC4(CC3)CN(c3ccc(C5CCC(=O)NC5=O)cc3F)C4)CC2)ccc1Nc1ncc2c(n1)N(C(C)C)CC(F)(F)C(=O)N2C (stereo not drawn) [Compound 42, 4-((7,7-difluoro-9-isopropyl-5-methyl-6-oxo-6,7,8,9-tetrahydro-5H-pyrimido[4,5-b][1,4]diazepin-2-yl)amino)-N-(4-((2-(4-(2,6-dioxopiperidin-3-yl)-2-fluorophenyl)-2,7-diazaspiro[3.5]nonan-7-yl)methyl)piperidin-1-yl)-3-methoxybenzamide]?
Answer: IC50 (H526 cell line): < 0.03 µM; Activity: ratio of the luminescence value of each Exemplary Compound treatment group to DMSO treatment group (PLK1): ++ (++ <0.6); IC50 at 5 days ([1]; MRC-5 cells (normal cell line)): > 10 µM

Question: With COc1cc(C(=O)NN2CC3(CCC(CN4CCN(c5ccc(C6CCC(=O)NC6=O)cc5F)CC4)CC3)C2)ccc1Nc1ncc2c(n1)N(C(C)C)CC(F)(F)C(=O)N2C (stereo not drawn) [Compound 31, 4-((7,7-difluoro-9-isopropyl-5-methyl-6-oxo-6,7,8,9-tetrahydro-5H-pyrimido[4,5-b][1,4]diazepin-2-yl)amino)-N-(7-((4-(4-(2,6-dioxopiperidin-3-yl)-2-fluorophenyl)piperazin-1-yl)methyl)-2-azaspiro[3.5]nonan-2-yl)-3-methoxybenzamide] as the compound, how does the IC50 (H526 cell line) read?
Answer: < 0.03 µM

Question: And the “Activity: ratio” value (PLK1)?
Answer: +++ (+++: <0.3)

Question: What about the IC50 at 5 days [1] of the same compound?
Answer: > 10 µM

Question: Which results are given for COc1cc(C(=O)NN2CCC(CN3CCN(c4ccc(C5CCC(=O)NC5=O)cc4F)CC3)C(F)(F)C2)ccc1Nc1ncc2c(n1)N(C(C)C)CC(F)(F)C(=O)N2C (stereo not drawn) [Compound 16, 4-((7,7-difluoro-9-isopropyl-5-methyl-6-oxo-6,7,8,9-tetrahydro-5H-pyrimido[4,5-b][1,4]diazepin-2-yl)amino)-N-(4-((4-(4-(2,6-dioxopiperidin-3-yl)-2-fluorophenyl)piperazin-1-yl)methyl)-3,3-difluoropiperidin-1-yl)-3-methoxybenzamide]?
Answer: IC50 (H526 cell line): < 0.1 µM; Activity: ratio of the luminescence value of each Exemplary Compound treatment group to DMSO treatment group (PLK1): ++ (++ <0.6); IC50 at 5 days ([1]; MRC-5 cells (normal cell line)): > 10 µM

Question: For COc1cc(C(=O)OC2CC3(CCN(CC4CCN(c5ccc(C6CCC(=O)NC6=O)cc5F)CC4)CC3)C2)ccc1Nc1ncc2c(n1)N(C(C)C)CC(F)(F)C(=O)N2C (stereo not drawn) [Compound 25, 7-((1-(4-(2,6-dioxopiperidin-3-yl)-2-fluorophenyl)piperidin-4-yl)methyl)-7-azaspiro[3.5]nonan-2-yl 4-((7,7-difluoro-9-isopropyl-5-methyl-6-oxo-6,7,8,9-tetrahydro-5H-pyrimido[4,5-b][1,4]diazepin-2-yl)amino)-3-methoxybenzoate], which IC50 (H526 cell line) is on record?
Answer: < 0.2 µM

Question: What about the “Activity: ratio” value (PLK1) of the same compound?
Answer: ++ (++ <0.6)

Question: What about the IC50 at 5 days [1] of the same compound?
Answer: > 10 µM

Question: Which results are given for COc1cc(C(=O)NC2CC23CCN(CC2CCN(c4ccc(C5CCC(=O)NC5=O)cc4F)CC2)CC3)ccc1Nc1ncc2c(n1)N(C(C)C)CC(F)(F)C(=O)N2C (stereo not drawn) [Compound 46, 4-((7,7-difluoro-9-isopropyl-5-methyl-6-oxo-6,7,8,9-tetrahydro-5H-pyrimido[4,5-b][1,4]diazepin-2-yl)amino)-N-(6-((1-(4-(2,6-dioxopiperidin-3-yl)-2-fluorophenyl)piperidin-4-yl)methyl)-6-azaspiro[2.5]octan-1-yl)-3-methoxybenzamide]?
Answer: IC50 (H526 cell line): < 0.1 µM; Activity: ratio of the luminescence value of each Exemplary Compound treatment group to DMSO treatment group (PLK1): +++ (+++: <0.3); IC50 at 5 days [1]: > 10 µM

Question: Which IC50 (H526 cell line) does the source give for COc1cc(C(=O)NC2CC(N(C)CC3CCN(c4ccc(C5CCC(=O)NC5=O)cc4F)CC3)C2)ccc1Nc1ncc2c(n1)N(C(C)C)CC(F)(F)C(=O)N2C (stereo not drawn) [Compound 44, 4-((7,7-difluoro-9-isopropyl-5-methyl-6-oxo-6,7,8,9-tetrahydro-5H-pyrimido[4,5-b][1,4]diazepin-2-yl)amino)-N-(3-(((1-(4-(2,6-dioxopiperidin-3-yl)-2-fluorophenyl)piperidin-4-yl)methyl)(methyl)amino)cyclobutyl)-3-methoxybenzamide] here?
Answer: < 0.03 µM

Question: And the “Activity: ratio” value (PLK1)?
Answer: +++ (+++: <0.3)

Question: What about the IC50 at 5 days ([1]; MRC-5 cells (normal cell line)) of the same compound?
Answer: > 10 µM

Question: For COc1cc(C(=O)NC2CCN(C(=O)CCCOc3cccc(C4CCC(=O)NC4=O)c3)CC2)ccc1Nc1ncc2c(n1)N(C(C)C)CC(F)(F)C(=O)N2C (stereo not drawn) [Compound 1, 4-((7,7-difluoro-9-isopropyl-5-methyl-6-oxo-6,7,8,9-tetrahydro-5H-pyrimido[4,5-b][1,4]diazepin-2-yl)amino)-N-(1-(4-(3-(2,6-dioxopiperidin-3-yl)phenoxy)butanoyl)piperidin-4-yl)-3-methoxybenzamide], which IC50 (H526 cell line) is on record?
Answer: < 0.05 µM

Question: What about the “Activity: ratio” value (PLK1) of the same compound?
Answer: +++ (+++: <0.3)

Question: What about the IC50 at 5 days ([1]; MRC-5 cells (normal cell line)) of the same compound?
Answer: > 10 µM

Question: With COc1cc(C(=O)NC2CC3(CCN(CC4CCN(c5ccc(C6CCC(=O)NC6=O)cc5C)CC4)CC3)C2)ccc1Nc1ncc2c(n1)N(C(C)C)CC(F)(F)C(=O)N2C (stereo not drawn) [Compound 35, 4-((7,7-difluoro-9-isopropyl-5-methyl-6-oxo-6,7,8,9-tetrahydro-5H-pyrimido[4,5-b][1,4]diazepin-2-yl)amino)-N-(7-((1-(4-(2,6-dioxopiperidin-3-yl)-2-methylphenyl)piperidin-4-yl)methyl)-7-azaspiro[3.5]nonan-2-yl)-3-methoxybenzamide] as the compound, how does the IC50 (H526 cell line) read?
Answer: < 0.03 µM

Question: And the “Activity: ratio” value (PLK1)?
Answer: ++ (++ <0.6)

Question: And the IC50 at 5 days [1]?
Answer: > 10 µM

Question: What does the source list for COc1cc(C(=O)NN2CCC(CCN3CCN(c4ccc(C5CCC(=O)NC5=O)cc4F)CC3)CC2)ccc1Nc1ncc2c(n1)N(C(C)C)CC(F)(F)C(=O)N2C (stereo not drawn) [Compound 45, 4-((7,7-difluoro-9-isopropyl-5-methyl-6-oxo-6,7,8,9-tetrahydro-5H-pyrimido[4,5-b][1,4]diazepin-2-yl)amino)-N-(4-(2-(4-(4-(2,6-dioxopiperidin-3-yl)-2-fluorophenyl)piperazin-1-yl)ethyl)piperidin-1-yl)-3-methoxybenzamide]?
Answer: IC50 (H526 cell line): < 0.03 µM; Activity: ratio of the luminescence value of each Exemplary Compound treatment group to DMSO treatment group (PLK1): +++ (+++: <0.3); IC50 at 5 days ([1]; MRC-5 cells (normal cell line)): > 10 µM

Reference: patent US11939334B2, “Substituted pyrimido[4,5-b][1,4]diazepines as PLK1 degradation inducers” (UPPTHERA, INC., priority 2021, dated 2024)
